In ChEMBL document CHEMBL1143897, “Aryl-indolyl maleimides as inhibitors of CaMKIIdelta. Part 2: SAR of the amine tether” (Bioorg Med Chem Lett, 2008):

Each compound was assayed against Calcium/calmodulin-dependent protein kinase type II subunit delta (Homo sapiens, UniProt Q13557) (assay: Inhibition of CaMK2delta).
Sequence of Calcium/calmodulin-dependent protein kinase type II subunit delta (Q13557 whole entry): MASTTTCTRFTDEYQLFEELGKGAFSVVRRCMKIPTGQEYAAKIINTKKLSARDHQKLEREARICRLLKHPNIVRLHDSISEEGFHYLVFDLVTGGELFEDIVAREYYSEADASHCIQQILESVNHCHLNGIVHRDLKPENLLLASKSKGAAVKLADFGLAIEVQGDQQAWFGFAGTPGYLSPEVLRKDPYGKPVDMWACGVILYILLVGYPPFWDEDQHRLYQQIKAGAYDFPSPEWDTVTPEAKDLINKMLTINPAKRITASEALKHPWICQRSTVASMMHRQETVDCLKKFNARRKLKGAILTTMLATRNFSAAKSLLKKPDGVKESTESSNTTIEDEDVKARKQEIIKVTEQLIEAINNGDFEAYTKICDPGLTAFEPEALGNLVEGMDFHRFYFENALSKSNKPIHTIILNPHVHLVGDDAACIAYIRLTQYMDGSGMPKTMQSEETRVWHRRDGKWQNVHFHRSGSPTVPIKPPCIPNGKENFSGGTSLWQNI

`CN1CCCC1CCn1cc(C2=C(c3c[nH]c4ccccc34)C(=O)NC2=O)c2ccccc21` (stereo not drawn) was tested. Which IC50 did it give?
Its IC50 is 1890 nM.

How did the IC50 turn out when `CC(C)(C)OC(=O)NCCCn1cc(C2=C(c3c[nH]c4ccccc34)C(=O)NC2=O)c2ccccc21` was run?
The IC50 was 3810 nM.

For `Cn1cc(C2=C(c3c[nH]c4ccc(Br)cc34)C(=O)NC2=O)c2ccccc21`, which IC50 is on record?
Its IC50 is 870 nM.

Which IC50 does the source give for `NCCCn1cc(C2=C(c3ccccc3)C(=O)NC2=O)c2ccccc21` here?
The IC50 was 1350 nM.

With `Cn1cc(C2=C(c3cn(CCCN)c4ccccc34)C(=O)NC2=O)c2ccccc21` as the compound, how does the IC50 read?
The IC50 was 310 nM.

How did the IC50 turn out when `Cn1cc(C2=C(c3cn(C4CCN(Cc5ccccc5)CC4)c4ccccc34)C(=O)NC2=O)c2ccccc21` was run?
Its IC50 is 1870 nM.

How did the IC50 turn out when `O=C1NC(=O)C(c2c[nH]c3ccccc23)=C1c1ccccc1` was run?
The IC50 was > 20000 nM.

How did the IC50 turn out when `NCCCn1cc(C2=C(c3c[nH]c4ccc(Br)cc34)C(=O)NC2=O)c2ccccc21` was run?
The IC50 was 34 nM.

`O=C1NC(=O)C(c2cn(CCC3CCCCN3)c3ccccc23)=C1c1c[nH]c2ccccc12` (stereo not drawn) was tested. Which IC50 did it give?
The IC50 was 1450 nM.

With `NCC(O)Cn1cc(C2=C(c3ccccc3)C(=O)NC2=O)c2ccccc21` (stereo not drawn) as the compound, how does the IC50 read?
The IC50 was 450 nM.

With `O=C1NC(=O)C(c2c[nH]c3ccccc23)=C1c1cccc(Br)c1` as the compound, how does the IC50 read?
The IC50 was 3530 nM.

With `CC(C)(C)OC(=O)NCCCn1cc(C2=C(c3ccccc3)C(=O)NC2=O)c2ccccc21` as the compound, how does the IC50 read?
Its IC50 is > 20000 nM.

Which IC50 does the source give for `Cn1cc(C2=C(c3cn(C4CCCNC4)c4ccccc34)C(=O)NC2=O)c2ccccc21` (stereo not drawn) here?
The IC50 was 300 nM.

`CC(C)(C)OC(=O)NCCCn1cc(C2=C(c3c[nH]c4ccc(Br)cc34)C(=O)NC2=O)c2ccccc21` was tested. Which IC50 did it give?
Its IC50 is 7540 nM.

Which IC50 does the source give for `NCCCn1cc(C2=C(c3cccc(Br)c3)C(=O)NC2=O)c2ccccc21` here?
Its IC50 is 180 nM.

With `O=C1NC(=O)C(c2cn(CCCN3CCNCC3)c3ccccc23)=C1c1c[nH]c2ccccc12` as the compound, how does the IC50 read?
Its IC50 is 2020 nM.

For `Cn1cc(C2=C(c3ccccc3)C(=O)NC2=O)c2ccccc21`, which IC50 is on record?
Its IC50 is > 20000 nM.

Which IC50 does the source give for `O=C1NC(=O)C(c2c[nH]c3ccccc23)=C1c1c[nH]c2ccccc12` [RO-316233] here?
The IC50 was 1190 nM.
